Data taken from BigSolDB 2.1.

O=C1OC(=O)[C@H]2[C@@H]1[C@H]1C=C[C@@H]2C1
solubility (mole fraction) (in 1,4-dioxane, 288.15 K): 0.177
solubility (mole fraction) (in 1,4-dioxane, 293.15 K): 0.199
solubility (mole fraction) (in 1,4-dioxane, 298.15 K): 0.221
solubility (mole fraction) (in 1,4-dioxane, 303.15 K): 0.249
solubility (mole fraction) (in 1,4-dioxane, 308.15 K): 0.273
solubility (mole fraction) (in 1,4-dioxane, 313.15 K): 0.304
solubility (mole fraction) (in 1,4-dioxane, 318.15 K): 0.334
solubility (mole fraction) (in 1,4-dioxane, 323.15 K): 0.37
solubility (mole fraction) (in DMF, 278.15 K): 0.209
solubility (mole fraction) (in DMF, 283.15 K): 0.23
solubility (mole fraction) (in DMF, 288.15 K): 0.246
solubility (mole fraction) (in DMF, 293.15 K): 0.267
solubility (mole fraction) (in DMF, 298.15 K): 0.288
solubility (mole fraction) (in DMF, 303.15 K): 0.309
solubility (mole fraction) (in DMF, 308.15 K): 0.337
solubility (mole fraction) (in DMF, 313.15 K): 0.361
solubility (mole fraction) (in DMF, 318.15 K): 0.389
solubility (mole fraction) (in DMF, 323.15 K): 0.419
solubility (mole fraction) (in NMP, 278.15 K): 0.257
solubility (mole fraction) (in NMP, 283.15 K): 0.271
solubility (mole fraction) (in NMP, 288.15 K): 0.289
solubility (mole fraction) (in NMP, 293.15 K): 0.305
solubility (mole fraction) (in NMP, 298.15 K): 0.325
solubility (mole fraction) (in NMP, 303.15 K): 0.345
solubility (mole fraction) (in NMP, 308.15 K): 0.371
solubility (mole fraction) (in NMP, 313.15 K): 0.392
solubility (mole fraction) (in NMP, 318.15 K): 0.421
solubility (mole fraction) (in NMP, 323.15 K): 0.448
solubility (mole fraction) (in acetone, 278.15 K): 0.13
solubility (mole fraction) (in acetone, 283.15 K): 0.144
solubility (mole fraction) (in acetone, 288.15 K): 0.162
solubility (mole fraction) (in acetone, 293.15 K): 0.179
solubility (mole fraction) (in acetone, 298.15 K): 0.201
solubility (mole fraction) (in acetone, 303.15 K): 0.223
solubility (mole fraction) (in acetone, 308.15 K): 0.251
solubility (mole fraction) (in acetone, 313.15 K): 0.276
solubility (mole fraction) (in acetone, 318.15 K): 0.308
solubility (mole fraction) (in ethanol, 278.15 K): 0.00405
solubility (mole fraction) (in ethanol, 283.15 K): 0.00536
solubility (mole fraction) (in ethanol, 288.15 K): 0.00707
solubility (mole fraction) (in ethanol, 293.15 K): 0.00927
solubility (mole fraction) (in ethanol, 298.15 K): 0.0117
solubility (mole fraction) (in ethanol, 303.15 K): 0.0155
solubility (mole fraction) (in ethanol, 308.15 K): 0.02
solubility (mole fraction) (in ethanol, 313.15 K): 0.0255
solubility (mole fraction) (in ethanol, 318.15 K): 0.0321
solubility (mole fraction) (in ethanol, 323.15 K): 0.0404
solubility (mole fraction) (in ethyl acetate, 278.15 K): 0.0719
solubility (mole fraction) (in ethyl acetate, 283.15 K): 0.0849
solubility (mole fraction) (in ethyl acetate, 288.15 K): 0.101
solubility (mole fraction) (in ethyl acetate, 293.15 K): 0.115
solubility (mole fraction) (in ethyl acetate, 298.15 K): 0.134
solubility (mole fraction) (in ethyl acetate, 303.15 K): 0.154
solubility (mole fraction) (in ethyl acetate, 308.15 K): 0.176
solubility (mole fraction) (in ethyl acetate, 313.15 K): 0.201
solubility (mole fraction) (in ethyl acetate, 318.15 K): 0.226
solubility (mole fraction) (in ethyl acetate, 323.15 K): 0.254
solubility (mole fraction) (in isopentyl acetate, 278.15 K): 0.0426
solubility (mole fraction) (in isopentyl acetate, 283.15 K): 0.0504
solubility (mole fraction) (in isopentyl acetate, 288.15 K): 0.0608
solubility (mole fraction) (in isopentyl acetate, 293.15 K): 0.07
solubility (mole fraction) (in isopentyl acetate, 298.15 K): 0.0818
solubility (mole fraction) (in isopentyl acetate, 303.15 K): 0.0952
solubility (mole fraction) (in isopentyl acetate, 308.15 K): 0.107
solubility (mole fraction) (in isopentyl acetate, 313.15 K): 0.125
solubility (mole fraction) (in isopentyl acetate, 318.15 K): 0.145
solubility (mole fraction) (in isopentyl acetate, 323.15 K): 0.165
solubility (mole fraction) (in isopropyl acetate, 278.15 K): 0.0541
solubility (mole fraction) (in isopropyl acetate, 283.15 K): 0.0637
solubility (mole fraction) (in isopropyl acetate, 288.15 K): 0.0745
solubility (mole fraction) (in isopropyl acetate, 293.15 K): 0.0862
solubility (mole fraction) (in isopropyl acetate, 298.15 K): 0.102
solubility (mole fraction) (in isopropyl acetate, 303.15 K): 0.117
solubility (mole fraction) (in isopropyl acetate, 308.15 K): 0.133
solubility (mole fraction) (in isopropyl acetate, 313.15 K): 0.152
solubility (mole fraction) (in isopropyl acetate, 318.15 K): 0.172
solubility (mole fraction) (in isopropyl acetate, 323.15 K): 0.196
solubility (mole fraction) (in methyl acetate, 278.15 K): 0.0936
solubility (mole fraction) (in methyl acetate, 283.15 K): 0.11
solubility (mole fraction) (in methyl acetate, 288.15 K): 0.127
solubility (mole fraction) (in methyl acetate, 293.15 K): 0.145
solubility (mole fraction) (in methyl acetate, 298.15 K): 0.166
solubility (mole fraction) (in methyl acetate, 303.15 K): 0.189
solubility (mole fraction) (in methyl acetate, 308.15 K): 0.214
solubility (mole fraction) (in methyl acetate, 313.15 K): 0.24
solubility (mole fraction) (in methyl acetate, 318.15 K): 0.269
solubility (mole fraction) (in methyl acetate, 323.15 K): 0.298
solubility (mole fraction) (in n-butyl acetate, 278.15 K): 0.0526
solubility (mole fraction) (in n-butyl acetate, 283.15 K): 0.0614
solubility (mole fraction) (in n-butyl acetate, 288.15 K): 0.0725
solubility (mole fraction) (in n-butyl acetate, 293.15 K): 0.0835
solubility (mole fraction) (in n-butyl acetate, 298.15 K): 0.0969
solubility (mole fraction) (in n-butyl acetate, 303.15 K): 0.111
solubility (mole fraction) (in n-butyl acetate, 308.15 K): 0.128
solubility (mole fraction) (in n-butyl acetate, 313.15 K): 0.145
solubility (mole fraction) (in n-butyl acetate, 318.15 K): 0.165
solubility (mole fraction) (in n-butyl acetate, 323.15 K): 0.189
solubility (mole fraction) (in n-hexyl acetate, 278.15 K): 0.0377
solubility (mole fraction) (in n-hexyl acetate, 283.15 K): 0.0447
solubility (mole fraction) (in n-hexyl acetate, 288.15 K): 0.0525
solubility (mole fraction) (in n-hexyl acetate, 293.15 K): 0.0614
solubility (mole fraction) (in n-hexyl acetate, 298.15 K): 0.0717
solubility (mole fraction) (in n-hexyl acetate, 303.15 K): 0.0828
solubility (mole fraction) (in n-hexyl acetate, 308.15 K): 0.0955
solubility (mole fraction) (in n-hexyl acetate, 313.15 K): 0.11
solubility (mole fraction) (in n-hexyl acetate, 318.15 K): 0.125
solubility (mole fraction) (in n-hexyl acetate, 323.15 K): 0.144
solubility (mole fraction) (in n-pentyl acetate, 278.15 K): 0.0448
solubility (mole fraction) (in n-pentyl acetate, 283.15 K): 0.0526
solubility (mole fraction) (in n-pentyl acetate, 288.15 K): 0.0615
solubility (mole fraction) (in n-pentyl acetate, 293.15 K): 0.0717
solubility (mole fraction) (in n-pentyl acetate, 298.15 K): 0.0833
solubility (mole fraction) (in n-pentyl acetate, 303.15 K): 0.0964
solubility (mole fraction) (in n-pentyl acetate, 308.15 K): 0.111
solubility (mole fraction) (in n-pentyl acetate, 313.15 K): 0.126
solubility (mole fraction) (in n-pentyl acetate, 318.15 K): 0.144
solubility (mole fraction) (in n-pentyl acetate, 323.15 K): 0.165
solubility (mole fraction) (in n-propyl acetate, 278.15 K): 0.0616
solubility (mole fraction) (in n-propyl acetate, 283.15 K): 0.0722
solubility (mole fraction) (in n-propyl acetate, 288.15 K): 0.0852
solubility (mole fraction) (in n-propyl acetate, 293.15 K): 0.0981
solubility (mole fraction) (in n-propyl acetate, 298.15 K): 0.112
solubility (mole fraction) (in n-propyl acetate, 303.15 K): 0.13
solubility (mole fraction) (in n-propyl acetate, 308.15 K): 0.148
solubility (mole fraction) (in n-propyl acetate, 313.15 K): 0.17
solubility (mole fraction) (in n-propyl acetate, 318.15 K): 0.191
solubility (mole fraction) (in n-propyl acetate, 323.15 K): 0.215
solubility (mole fraction) (in octyl acetate, 278.15 K): 0.0303
solubility (mole fraction) (in octyl acetate, 283.15 K): 0.036
solubility (mole fraction) (in octyl acetate, 288.15 K): 0.0424
solubility (mole fraction) (in octyl acetate, 293.15 K): 0.0496
solubility (mole fraction) (in octyl acetate, 298.15 K): 0.0576
solubility (mole fraction) (in octyl acetate, 303.15 K): 0.0666
solubility (mole fraction) (in octyl acetate, 308.15 K): 0.0774
solubility (mole fraction) (in octyl acetate, 313.15 K): 0.0875
solubility (mole fraction) (in octyl acetate, 318.15 K): 0.1
solubility (mole fraction) (in octyl acetate, 323.15 K): 0.115
